The test system of data set [1] is C57BL/6J mice after CSDS. In words: Chronic social defeat stress (CSDS) model, sucrose preference test. As to conditions: single i.p. injection 10 mg kg−1. Format: in vivo. Here is the method:
The 10‐day CSDS paradigm was conducted as previously described.^[ [24] ^] CD‐1 aggressive mice were singly housed in defeat cages on one side of a perforated plexiglass partition 24 h before the defeat session. Experimental C57BL/6J mice were placed daily on the resident cage side of a novel CD‐1 aggressor that rapidly initiated a physical attack on the intruder. After 10‐min of social defeat, the intruder mice were housed on the opposite side of the partition within a shared home cage, experiencing further sensory contact for the subsequent 24 h. In contrast, control mice were maintained in their home cages and allowed to explore the empty defeat cages for 10 min each day.
Mice were individually housed with two identical bottles containing either 1% sucrose solution or tap water for 24 h. The bottles were then replaced to eliminate potential positional bias, followed by an additional 24‐h period with the same solutions. Subsequently, the mice were provided with tap water for 24 h. During the experimental phase, new bottles filled with either 1% sucrose solution or tap water were presented for 24 h, and the bottles were changed every 12 h. The bottles were weighed both before and after the 24‐h test to assess consumption of each solution.

Data set [2] relates to C57BL/6J mice. The data set can be described thus: Novelty-suppressed feeding test (NSFT). It counts as in vivo. Here is the method:
The mice were individually housed in new cages and deprived of food for 24 h. The testing equipment was a brightly lit plastic box measuring 40 × 40 × 30 cm^3 with a light intensity of 1100–1200 lux. Each mouse was positioned in a corner of the device with one food pellet located at the center. The latency to start chewing food was recorded within 5 min. Immediately thereafter, the mice were placed back in their home cage with pre‐measured food, and the amount consumed in the next 5 min was used as a baseline to account for appetite changes that might affect the outcome.

Data set [3] is described as follows: Brain penetration (plasma and brain concentration, LC-MS/MS). As to conditions: for Kp at 1 h / concentration at 1 h: male, C57BL/6J, mouse; for Kp at 1 h: brain and plasma, read-out: Brain/Plasma concentration ratio; for concentration at 1 h: 1 h post-dosing. Format: in vivo, mice. Here is the method: Male C57BL/6J mice were used for both blood–brain penetration and plasma/tissue distribution studies, with mice assigned to three groups: 10 mg kg^−1 JX3212 (n = 3), 20 mg kg^−1 JX3212 (n = 3) for blood–brain penetration, and 10 mg kg^−1 JX3212 for plasma/tissue distribution (all administered via intraperitoneal injection), where mice in the blood–brain penetration groups were fasted for 12 h prior to drug administration and 2 h post‐administration; 1 h after drug administration, 0.2 mL of blood was collected from the retro‐orbital/orbital venous plexus into 1.5 mL heparinized tubes, centrifuged at 11 000 rpm for 5 min to obtain plasma (stored at −80 °C for blood–brain penetration groups), while whole brains were excised for blood–brain penetration groups and whole brains plus kidneys (rinsed with physiological saline, blotted dry on filter paper, and accurately weighed) for the plasma/tissue distribution group; plasma samples (20 µL) were mixed with 20 µL internal standard solution and 300 µL acetonitrile for protein precipitation, vortexed for 15 min, centrifuged at 3700 rpm for 15 min at 4 °C, and the supernatant was collected, whereas brain and kidney samples were homogenized in acetonitrile at 10× tissue weight (8000 rpm, 3 × 30 s), sonicated for 5 min, and processed identically to plasma samples; the concentrations of JX3212 in plasma and tissues were quantified by liquid chromatography–tandem mass spectrometry (LC−MS/MS), with lower limits of quantification set to 50 ng mL^−1 for plasma and 50 ng g^−1 for brain tissue.

The target in data set [4] is T1, Kir2.2 (Homo sapiens, UniProt Q14500).
T1 construct: host or cells: CHO-K1
The data set can be described thus: Whole-cell patch clamp, Kir2.2. Format: cell-based. The settings on record: mean ± SEM. Here is the method:
(§1) Plasmids encoding WT human potassium channels Kir1.1, Kir2.1, Kir2.2, Kir4.1, and Kir4.2 were obtained from the Beijing Genomics Institute. All point mutations were constructed using the QuickChange II Site‐Directed Mutagenesis Kit (Stratagene) and subsequently verified by sequencing.
CHO‐K1 cells were maintained in DMEM/F12 growth medium containing 10% fetal bovine serum. Plasmids encoding the target genes (3600 ng) and enhanced green fluorescent protein (400 ng) were cotransfected into cells using Lipofectamine 2000 (Invitrogen) in accordance with the manufacturer's instructions. Cells were seeded onto poly‐d‐lysine (PDL)‐coated glass coverslips 1 h prior to electrophysiological recordings. […]
Whole‐cell patch‐clamp recordings were obtained either in transiently transfected CHO‐K1 cells or in primary cultured astrocytes at room temperature using standard patch‐clamp techniques with an Axopatch‐700B amplifier (Axon Instruments). […] Macroscopic currents generated by expressed potassium channels were recorded under the voltage‐clamp conditions with an internal pipette solution composed of (in mM): 140 KCl, 5 NaCl, 1 CaCl2, 1 MgCl2, 10 HEPES, and 10 EGTA, pH 7.2 adjusted with KOH. […] Astrocytic resting membrane potentials were recorded under current‐clamp conditions (I = 0 pA) using standard internal and external solutions, determined immediately after achieving whole‐cell mode.

Data set [5] addresses T2, Kir4.1 I159A (Homo sapiens, UniProt P78508, I159A).
T2 construct: expressed in transfected cells; host or cells: CHO-K1
T2 sequence (P78508 1-379 I159A): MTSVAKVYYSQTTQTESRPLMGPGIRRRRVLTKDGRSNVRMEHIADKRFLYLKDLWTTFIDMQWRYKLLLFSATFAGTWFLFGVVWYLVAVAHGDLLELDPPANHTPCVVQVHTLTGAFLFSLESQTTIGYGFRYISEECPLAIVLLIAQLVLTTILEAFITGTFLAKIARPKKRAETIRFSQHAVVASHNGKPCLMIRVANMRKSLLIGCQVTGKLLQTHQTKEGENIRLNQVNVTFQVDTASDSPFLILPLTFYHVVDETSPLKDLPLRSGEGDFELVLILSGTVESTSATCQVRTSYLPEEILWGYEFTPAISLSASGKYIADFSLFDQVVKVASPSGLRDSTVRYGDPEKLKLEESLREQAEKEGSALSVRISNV
The data set can be described thus: Whole-cell patch clamp, Kir4.1 point mutant I159A. Format: cell-based. Here is the method: as §1
CHO‐K1 cells were maintained in DMEM/F12 growth medium containing 10% fetal bovine serum. Plasmids encoding the target genes (3600 ng) and enhanced green fluorescent protein (400 ng) were cotransfected into cells using Lipofectamine 2000 (Invitrogen) in accordance with the manufacturer's instructions. Cells were seeded onto poly‐d‐lysine (PDL)‐coated glass coverslips 1 h prior to electrophysiological recordings. All cells were cultured under standard conditions of 5% CO2 at 37 °C.
Whole‐cell patch‐clamp recordings were obtained either in transiently transfected CHO‐K1 cells or in primary cultured astrocytes at room temperature using standard patch‐clamp techniques with an Axopatch‐700B amplifier (Axon Instruments). The signals were filtered at 2 kHz and sampled at 20 kHz using the Digidata 1440A interface (Axon Instruments). The resistance of borosilicate glass pipettes was typically 2–4 MΩ when filled with the internal solution. Drug application was facilitated using a BPS perfusion system (ALA Scientific Instruments). Macroscopic currents generated by expressed potassium channels were recorded under the voltage‐clamp conditions with an internal pipette solution composed of (in mM): 140 KCl, 5 NaCl, 1 CaCl2, 1 MgCl2, 10 HEPES, and 10 EGTA, pH 7.2 adjusted with KOH. The external solution contained (in mM): 140 NaCl, 5 KCl, 2 CaCl2, 1 MgCl2, 10 glucose, and 10 HEPES, pH 7.4 adjusted with NaOH. Currents were elicited with a hyperpolarized voltage at −120 mV from the holding potential of −80 mV, followed by a ramp voltage depolarizing to +50 mV. Astrocytic resting membrane potentials were recorded under current‐clamp conditions (I = 0 pA) using standard internal and external solutions, determined immediately after achieving whole‐cell mode.
Background: Patch clamp records ionic current or voltage across a cell membrane.

[6] abbreviates: mice, 10 mg/kg i.p., 1 h, 10 mg/kg.
The mark [7] stands for this setting: mice, 20 mg/kg i.p., 1 h, 20 mg/kg.

Each structure is given as a SMILES string. Several values for one entry are separate records, joined by “and”; a condition that tells them apart may be missing. Equal values may be shown once. Read-outs that look alike come from different tables or passages of the source. Bounds are passed on as bounds.

By inhibition is commonly meant how much of the control response was suppressed.

T1 sequence (Q14500 whole entry): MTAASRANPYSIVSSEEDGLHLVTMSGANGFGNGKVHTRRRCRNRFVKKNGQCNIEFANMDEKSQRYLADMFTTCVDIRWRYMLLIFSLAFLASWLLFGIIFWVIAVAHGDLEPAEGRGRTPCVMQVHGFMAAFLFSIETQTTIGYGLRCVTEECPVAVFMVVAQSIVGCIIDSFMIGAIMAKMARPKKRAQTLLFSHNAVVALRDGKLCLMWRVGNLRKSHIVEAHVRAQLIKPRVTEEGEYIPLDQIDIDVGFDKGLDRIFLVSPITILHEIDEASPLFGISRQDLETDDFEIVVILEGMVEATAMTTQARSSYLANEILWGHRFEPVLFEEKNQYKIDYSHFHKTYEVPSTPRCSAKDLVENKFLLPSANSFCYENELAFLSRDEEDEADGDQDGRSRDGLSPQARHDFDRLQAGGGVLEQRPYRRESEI

On to `c1ccc2c(c1)oc1ccc(Nc3ccnc(NCCCN4CCOCC4)n3)cc12` [JX3212, N^4-(dibenzo[b,d]furan-2-yl)-N^2-(3-morpholinopropyl)pyrimidine-2,4-diamine], for which the “CSDS: sucrose preference in SPT (in words)” value in data set [1] is “nonsignificant increase in the sucrose preference ratio”. In addition, the “effective threshold dose in NSFT” value in data set [2] (acute administration, doses 1, 3, 10 mg kg−1) is 10 mg/kg. Further, in data set [2] (repeated administration, vs vehicle), the “food intake in home cage after NSFT (in words)” value is “remained comparable to that in the vehicle group”. In addition, the “Food intake in home cage, single mice” value in data set [2] (repeated doses, 3 mg/kg (Fig 3F), 3 mg/kg) is 0.14 and 0.11 and 0.12 and 0.1 and 0.09. Besides, in data set [2] (seven days, imipramine 15 mg kg−1, JX3212 3/10 mg kg−1), the “NSFT antidepressant-like response after repeated administration (in words)” value was “elicited significant antidepressant‐like responses”. Also, in data set [2] (single dose 10 mg kg−1 i.p., 1 h after administration), the “NSFT latency to feed (in words)” value is on record as “significantly reduced the latency to feed”. The Kp at 1 h in data set [3] (ip, 10 mg/kg, mice, 10 mg/kg i.p., 1 h) is over 10; in data set [3] (ip, 20 mg/kg, mice, 20 mg/kg i.p., 1 h), 12.9 ± 1. Moreover, the concentration at 1 h in data set [3] (brain, intraperitoneal, 10 mg/kg, converted from 2533.3 ng/mL, read-out: brain concentration expressed as molar) is about 6.3 µM; in data set [3] (brain, ip, 10 mg/kg, mice, 10 mg/kg i.p., read-out: Brain Calculated Concentration) it was 2530 ± 745 ng/mL; in data set [3] (brain, ip, 20 mg/kg, mice, 20 mg/kg i.p., read-out: Brain Calculated Concentration) it was 6690 ± 816 ng/mL; in data set [3] (plasma, ip, 10 mg/kg, mice, 10 mg/kg i.p., mean ± SD, read-out: Plasma Calculated Concentration) it was 234 ± 14.4 ng/mL; in data set [3] (plasma, ip, 20 mg/kg, mice, 20 mg/kg i.p., read-out: Plasma Calculated Concentration), 521 ± 63.3 ng/mL. The Brain/Plasma concentration ratio is reported as 10.72 in data set [3] (setting [6]) and over 10 in data set [3] (setting [7]). Further, the “logBB (blood–brain partitioning coefficient)” value in data set [3] (setting [6]) is 1.02 ± 0.10 and > 1 and 1.02. In addition, in data set [3] (setting [7]), the logBB was 1.11 ± 0.03 and > 1. For the same compound, the inhibition at 3 µM worked out at 14.3 ± 8.36% in data set [4]; 43.9 ± 6.15% in data set [5] (3 µM, mean ± SEM, read-out: current inhibition, Kir4.1 I159A); 42.9% in data set [5] (JX3212 3 µM (Fig 2D), read-out: Mutation: I159A inhibition, single recordings). Moreover, in data set [5] (JX3212 3 µM (Fig 2D)), the “Mutation: I159A inhibition, single recordings” value is 52.8569 and 40.7357 and 46.4245 and 36.569.

The values above are taken from paper PMC12903969, “Discovery of a Novel and Potent Kir4.1 Inhibitor as a Safe and Rapid‐Onset Antidepressant Agent in Mice” (Advanced Science, 2025).
